Measurements: ChEMBL document CHEMBL1201862, “PubChem BioAssay data set” (2004)
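How tested: cells in 96-well plates exposed to compound for 48 hours at five concentrations. Abbreviation: GI50, concentration required for 50% inhibition of growth.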 Active and inactive are the calls of the source. No stated cut-off is given here; in the data, active = GI50 up to about 1.1 µM and inactive = higher.

Legend:
Experiment in all cases: NCI anticancer screen, dose series, 48 h
[1] = tested on: SK-MEL-2
[2] = tested on: NCI-H226
[3] = tested on: NCI-H23
[4] = tested on: OVCAR-3
[5] = tested on: SF-539
[6] = tested on: CAKI-1
[7] = tested on: Malme-3M
[8] = tested on: HOP-62
[9] = tested on: ACHN
[10] = tested on: MCF7
[11] = tested on: HCT-15
[12] = tested on: UACC-62
[13] = tested on: SN12C
[14] = tested on: K562
[15] = tested on: HCT-116
[16] = tested on: CCRF-CEM
[17] = tested on: HCC 2998
[18] = tested on: UO-31
[19] = tested on: RXF 393
[20] = tested on: IGROV-1
[21] = tested on: SF-268
[22] = tested on: U-251
[23] = tested on: HOP-92
[24] = tested on: OVCAR-4
[25] = tested on: LOX IMVI
[26] = tested on: MDA-MB-231
[27] = tested on: PC-3
[28] = tested on: MOLT-4
[29] = tested on: M14
[30] = tested on: RPMI-8226
[31] = tested on: OVCAR-8
[32] = tested on: SK-OV-3
[33] = tested on: COLO 205
[34] = tested on: NCI-H522
[35] = tested on: SR
[36] = tested on: A498
[37] = tested on: KM12
[38] = tested on: NCI/ADR-RES
[39] = tested on: T47D
[40] = tested on: UACC-257
[41] = tested on: MDA-N
[42] = tested on: TK-10
[43] = tested on: A549
[44] = tested on: SNB-75
[45] = tested on: SF-295
[46] = tested on: BT-549
[47] = tested on: MDA-MB-435
[48] = tested on: SW-620
[49] = tested on: DU-145
[50] = tested on: EKVX
[51] = tested on: 786-0
[52] = tested on: OVCAR-5
[53] = tested on: HT-29
[54] = tested on: SNB-19
[55] = tested on: NCI-H460
[56] = tested on: SK-MEL-5
[57] = tested on: SK-MEL-28
[58] = tested on: Hs-578T
[59] = tested on: HL-60

O=C(O)CCCCn1cnc2c(S)ncnc21
GI50 [1]: > 100 µM (inactive)
GI50 [2]: > 100 µM (inactive)
GI50 [3]: > 100 µM (inactive)
GI50 [4]: > 100 µM (inactive)
GI50 [5]: > 100 µM (inactive)
GI50 [6]: > 100 µM (inactive)
GI50 [7]: > 100 µM (inactive)
GI50 [8]: > 100 µM (inactive)
GI50 [9]: > 100 µM (inactive)
GI50 [10]: > 100 µM (inactive)
GI50 [11]: > 100 µM
GI50 [12]: > 100 µM (inactive)
GI50 [13]: > 100 µM (inactive)
GI50 [14]: > 100 µM (inactive)
GI50 [15]: > 100 µM (inactive)
GI50 [16]: 4.33 µM (inactive)
GI50 [17]: > 100 µM (inactive)
GI50 [18]: > 100 µM (inactive)
GI50 [19]: > 100 µM (inactive)
GI50 [20]: > 100 µM (inactive)
GI50 [21]: > 100 µM (inactive)
GI50 [22]: > 100 µM (inactive)
GI50 [23]: > 100 µM (inactive)
GI50 [24]: > 100 µM (inactive)
GI50 [25]: > 100 µM (inactive)
GI50 [26]: > 100 µM (inactive)
GI50 [27]: > 100 µM (inactive)
GI50 [28]: > 100 µM (inactive)
GI50 [29]: > 100 µM (inactive)
GI50 [30]: > 100 µM (inactive)
GI50 [31]: > 100 µM (inactive)
GI50 [32]: > 100 µM (inactive)
GI50 [33]: > 100 µM (inactive)
GI50 [34]: > 100 µM (inactive)
GI50 [35]: > 100 µM (inactive)
GI50 [36]: > 100 µM (inactive)
GI50 [37]: > 100 µM (inactive)
GI50 [38]: > 100 µM (inactive)
GI50 [39]: > 100 µM (inactive)
GI50 [40]: > 100 µM (inactive)
GI50 [41]: > 100 µM (inactive)
GI50 [42]: > 100 µM (inactive)
GI50 [43]: > 100 µM (inactive)
GI50 [44]: > 100 µM (inactive)
GI50 [45]: > 100 µM (inactive)
GI50 [46]: > 100 µM (inactive)
GI50 [47]: > 100 µM (inactive)
GI50 [48]: > 100 µM (inactive)
GI50 [49]: > 100 µM (inactive)
GI50 [50]: > 100 µM (inactive)
GI50 [51]: > 100 µM (inactive)
GI50 [52]: > 100 µM (inactive)
GI50 [53]: > 100 µM (inactive)
GI50 [54]: > 100 µM (inactive)
GI50 [55]: > 100 µM (inactive)
GI50 [56]: > 100 µM (inactive)
GI50 [57]: > 100 µM (inactive)
GI50 [58]: > 100 µM (inactive)

COc1ccc(-c2c(=O)[nH]n3c(=S)[nH]c(-c4ccccc4)nc23)cc1OC
GI50 [59]: 18 µM (inactive)
GI50 [2]: 19.2 µM (inactive)
GI50 [3]: 21.3 µM (inactive)
GI50 [6]: 24.3 µM (inactive)
GI50 [7]: 19.2 µM (inactive)
GI50 [8]: 30 µM (inactive)
GI50 [9]: 23.3 µM (inactive)
GI50 [10]: 15.8 µM (inactive)
GI50 [11]: 17.3 µM
GI50 [12]: 19.1 µM (inactive)
GI50 [13]: 16.2 µM (inactive)
GI50 [14]: 12.9 µM (inactive)
GI50 [15]: 16.6 µM (inactive)
GI50 [16]: 9.1 µM (inactive)
GI50 [17]: 18.5 µM (inactive)
GI50 [18]: 17 µM (inactive)
GI50 [19]: 17.7 µM (inactive)
GI50 [20]: 23.8 µM (inactive)
GI50 [21]: 19.4 µM (inactive)
GI50 [22]: 17.5 µM (inactive)
GI50 [23]: 17.7 µM (inactive)
GI50 [24]: 21 µM (inactive)
GI50 [25]: 17.2 µM (inactive)
GI50 [26]: 28.6 µM (inactive)
GI50 [27]: 31.3 µM (inactive)
GI50 [28]: 8.51 µM (inactive)
GI50 [29]: 19.9 µM (inactive)
GI50 [31]: 20.8 µM (inactive)
GI50 [32]: 25.1 µM (inactive)
GI50 [33]: 16.8 µM (inactive)
GI50 [34]: 17.5 µM (inactive)
GI50 [35]: 6.9 µM (inactive)
GI50 [36]: 18.1 µM (inactive)
GI50 [37]: 17.7 µM (inactive)
GI50 [38]: 21.3 µM (inactive)
GI50 [39]: 20.2 µM (inactive)
GI50 [40]: 24 µM (inactive)
GI50 [41]: 14.8 µM (inactive)
GI50 [42]: 22.6 µM (inactive)
GI50 [43]: 31.7 µM (inactive)
GI50 [44]: 24.5 µM (inactive)
GI50 [45]: 20.8 µM (inactive)
GI50 [46]: 17.4 µM (inactive)
GI50 [47]: 18.9 µM (inactive)
GI50 [48]: 30.1 µM (inactive)
GI50 [49]: 23 µM (inactive)
GI50 [50]: 22.5 µM (inactive)
GI50 [51]: 17.2 µM (inactive)
GI50 [52]: 20.7 µM (inactive)
GI50 [53]: 21.6 µM (inactive)
GI50 [54]: 15 µM (inactive)
GI50 [55]: 29 µM (inactive)
GI50 [56]: 16.4 µM (inactive)
GI50 [57]: 21.3 µM (inactive)
GI50 [58]: 29.7 µM (inactive)

O=C1C(Cl)=C(N2C(=O)CCC2=O)C(=O)c2ccccc21
GI50 [1]: 39.8 µM (inactive)
GI50 [59]: 2.51 µM (inactive)
GI50 [2]: > 100 µM (inactive)
GI50 [3]: 29 µM (inactive)
GI50 [4]: 17.9 µM (inactive)
GI50 [5]: 39.8 µM (inactive)
GI50 [6]: 19.1 µM (inactive)
GI50 [8]: > 100 µM (inactive)
GI50 [9]: 15.7 µM (inactive)
GI50 [10]: 17.2 µM (inactive)
GI50 [11]: 13.2 µM
GI50 [12]: 34 µM (inactive)
GI50 [13]: 17.9 µM (inactive)
GI50 [14]: 2.83 µM (inactive)
GI50 [15]: 22.8 µM (inactive)
GI50 [16]: 2.62 µM (inactive)
GI50 [17]: 22.5 µM (inactive)
GI50 [18]: 15 µM (inactive)
GI50 [19]: 18.5 µM (inactive)
GI50 [20]: 44.4 µM (inactive)
GI50 [21]: 40.1 µM (inactive)
GI50 [22]: 23.9 µM (inactive)
GI50 [23]: 7.83 µM (inactive)
GI50 [25]: 27.3 µM (inactive)
GI50 [26]: 27.5 µM (inactive)
GI50 [27]: 53.2 µM (inactive)
GI50 [28]: 50.7 µM (inactive)
GI50 [29]: 45.7 µM (inactive)
GI50 [31]: 37.1 µM (inactive)
GI50 [32]: > 100 µM (inactive)
GI50 [33]: 15.2 µM (inactive)
GI50 [34]: 17.8 µM (inactive)
GI50 [35]: 32 µM (inactive)
GI50 [36]: 37.9 µM (inactive)
GI50 [37]: 41.8 µM (inactive)
GI50 [38]: 89.3 µM (inactive)
GI50 [39]: 32.4 µM (inactive)
GI50 [40]: 25.2 µM (inactive)
GI50 [41]: 19.4 µM (inactive)
GI50 [42]: 39.8 µM (inactive)
GI50 [43]: 31.8 µM (inactive)
GI50 [44]: > 100 µM (inactive)
GI50 [45]: > 100 µM (inactive)
GI50 [46]: 20.5 µM (inactive)
GI50 [47]: 19.8 µM (inactive)
GI50 [48]: 23.1 µM (inactive)
GI50 [49]: 32.7 µM (inactive)
GI50 [50]: 34.2 µM (inactive)
GI50 [51]: 18.7 µM (inactive)
GI50 [52]: 20.4 µM (inactive)
GI50 [53]: 29 µM (inactive)
GI50 [54]: 52.6 µM (inactive)
GI50 [55]: 53.6 µM (inactive)
GI50 [56]: 19.8 µM (inactive)
GI50 [57]: 20.4 µM (inactive)
GI50 [58]: > 100 µM (inactive)
